Several values for one entry are separate records, joined by “and”; a condition that tells them apart may be missing. Identical values can stand only once. Entries after “also recorded” stand apart in the source; their conditions may differ. Like-named read-outs stand apart in the source and are kept apart here.
Assays:
[1] = target: T1, α6β3β4α5 nAChR (Homo sapiens, UniProt P30926+Q15825); experiment: [3H]-epibatidine binding to SH-EP1 α6β3β4α5 cell membranes (saturation and competition)
T1 construct: expressed in transfected cells; host or cells: SH-EP1 human epithelial cells
Procedure: Preparation of Cell Membranes for Receptor Binding. […] Combined homogenate (18 mL) was centrifuged at 40,000×g for 20 min (4° C.). The pellet was resuspended in 12 mL of ice-cold PBS and centrifuged again. The final pellet was resuspended in 10 mL of PBS.
[^3H]-Epibatidine Binding. For the saturation binding assay, 0.1 to 2.0 nM [^3H]-EPI (final concentrations; PerkinElmer Life Sciences, 56.2 Ci/mmol) was used to probe α6-comprising binding sites on the cell membranes. Competition binding assay was performed using 0.5 nM [^3H]-EPI (final concentration).
Each well contained 50 μL of test compound at the desired concentration, 50 μL of 4×[^3H]-EPI stock solution and 100 μL of membrane suspension and was performed in triplicate, at minimum. Samples were incubated for 2 hr at room temperature with gentle agitation. Samples defining total binding included buffer instead of test compound.
For 48-well plates, binding was terminated by immediate filtration onto GF/B filters (presoaked in 0.3% PEI) using a 48-sample, semi-auto harvester (Brandel, Gaithersburg, Md.), followed by washing 3 times with ice-cold buffer. Filters were transferred into scintillation vials filled with 3 mL of cocktail. Radioactivity was measured after 8-12 hr using a liquid scintillation analyzer (model Tri-Carb 2200CA, PerkinElmer Life Sciences Inc., Boston, Mass.). Data were expressed as disintegrations per minute (DPMs) and were converted to an absolute amount (fmoles) of bound [^3H]-EPI per mg of protein, or as a percent of control [^3H]-EPI binding (total—nonspecific).
For 96-well plates, incubation was terminated by dilution with ice-cold PBS and immediate filtration onto GF/B filter plate (presoaked in 0.3% PEI) using a 96-sample, semi-auto harvester (Brandel, Gaithersburg, Md.). After washing 3 times with ˜350 μl of ice-cold buffer, the filter plate was dried for 60 min in an oven at 49° C., bottom-sealed and each well filled with 40 μl of cocktail. […] Data were expressed as counts per minute (CPMs) and were converted to percent of control [^3H]-EPI binding (total—nonspecific).
Pseudo Hill slope (nH) was determined by fitting data to a sigmoidal dose-response equation (variable slope): % binding=Bottom+(Top−Bottom)/[1+10^(logIC50-X)·n], where X is the logarithm of inhibitor concentration and n is the slope.
A Scatchard analysis was also done for illustrative purposes, but not to determine specific binding parameters.

[2] = system: DA release; settings: Bencherif, et al., 1998; cited from earlier work
[3] = target: α6α4β2β3 nAChR (Homo sapiens, UniProt P17787+P43681+Q15825, P452S); experiment: 86Rb+ efflux assay, SH-EP1 α6α4β2β3 cells compared with α4β2 cells; assay type: cell-based
Procedure: (§1) ^86Rb^+-flux Assay. […] After cells had adhered (generally overnight, but no sooner than 4 hr later), medium was removed and replaced with 250 μl per well of complete medium supplemented with ˜300,000 cpm of ^86Rb^+ (NEN; counted at 40% efficiency using Cerenkov counting and the Packard TriCarb 1900 Liquid Scintillation Analyzer).
(§2) Briefly, after aspiration of the bulk of ^86Rb^+ loading medium from each well of the “cell plate,” each well containing cells was rinsed three times with 2 ml of fresh ^86 Rb^+ efflux buffer (130 mM NaCl, 5.4 mM KCl, 2 mM CaCl2, 5 mM glucose, 50 mM HEPES, pH 7.4) to remove extracellular ^86Rb^+. Following removal of residual rinse buffer by aspiration, the flip-plate technique was used again to simultaneously introduce fresh efflux buffer containing drugs of choice at indicated final concentrations from a 24-well “efflux/drug plate” into the wells of the cell plate. […]
(§3) Intrinsic agonist activity of test drugs was ascertained in samples containing that drug only at different concentrations and was normalized, after subtraction of non-specific efflux, to specific efflux assessed using carbamylcholine and efflux-buffer-only controls. Antagonist activity was determined for test drugs at different concentrations in the presence of 1 mM carbamylcholine and was normalized, after subtraction of non-specific efflux, to specific efflux ascertained using carbamylcholine and efflux buffer-only controls. ^86Rb^+ in both cell plates and efflux/drug plates was periodically determined to ensure material balance (i.e., that the sum of ^86Rb^+ released into the efflux/drug plate and ^86Rb^+ remaining in the cell plate were the same for each well) and to determine efficiency of ^86Rb^+ loading (the percentage of applied ^86Rb^+ actually loaded into cells).
(§4) In some cases, biphasic dose-ion flux response curves were evident and were fit to a two-phase Hill equation from which EC50 and Hill coefficients for the rising, agonist phase, and IC50 and Hill coefficients for the falling, self-inhibitory phase could be determined (Prism).

[4] = target: T2, α4β2 nAChR (Rattus norvegicus, UniProt P09483+P12390); experiment: biochemical; assay type: binding
T2 construct: Rat Brain; from tissue

[5] = target: T3, α7 nAChR (Rattus norvegicus, UniProt Q05941); experiment: biochemical; settings: read-out: Ki α7 [3H]-MLA Binding
T3 construct: Rat brain; from tissue

[6] = target: T1, α6β3β4α5 nAChR; experiment: 86Rb+ efflux assay, SH-EP1 α6β3β4α5 cells; assay type: cell-based; settings: SH-EP1 cells expressing α6β3β4α5-nAChR, FIG. 2
Procedure: ^86Rb^+-flux Assay. Cells were harvested at confluence from 100-mm plates by mild trypsinization (Irvine Scientific, Santa Ana, Calif.) before being resuspended in complete medium and evenly seeded at a density of one confluent 100-mm plate per 24-well plate (Falcon; ˜100-125 μg of total cell protein per well in a 500 μl volume). After cells had adhered (generally overnight, but no sooner than 4 hr later), medium was removed and replaced with 250 μl per well of complete medium supplemented with ˜300,000 cpm of ^86Rb^+ (NEN; counted at 40% efficiency using Cerenkov counting and the Packard TriCarb 1900 Liquid Scintillation Analyzer).
After at least 4 hr and typically overnight, ^86Rb^+ efflux was measured using the “flip-plate” technique (Lukas et al., 2002). […]
For each experiment, normalization and quality control measurements were made of total ^86Rb^+ efflux in samples containing a fully efficacious dose of 1 mM carbamylcholine and of non-specific ^86Rb^+ efflux measured using either samples containing 1 mM carbamylcholine plus 100 μM mecamylamine, which gave full block of agonist-induced or spontaneous, nAChR-mediated ion flux, or samples containing efflux buffer alone to assess any contributions due to spontaneous nAChR-mediated ion flux. […] Specific ^86Rb^+ efflux was determined in absolute terms and as a percentage of loaded ^86Rb^+. […]

[7] = target: T3, α7 nAChR; settings: Table 1; from Briggs et al, 1997; read-out: Ki α7 [3H]-MLA Binding; cited from earlier work
[8] = target: T2, α4β2 nAChR; settings: Table 1; from Briggs et al, 1997; read-out: Ki α4β2 [3H]-NIC Binding; cited from earlier work
[9] = target: α6α4β2β3 nAChR (Homo sapiens, UniProt P17787+P43681+Q15825); experiment: 86Rb+ efflux assay, SH-EP1 α6α4β2β3 cells compared with α4β2 cells; assay type: cell-based
Procedure: as §1, §2, §3, §4

[10] = SH-EP1 α6β3β4α5 membranes, read-out: Ki in competition with [3H]-EPI (rank order of potency)
[11] = Ki in competition with [3H]-EPI (rank order of potency)
[12] = read-out: Ki α6β3β4α5 [3H]-EPI Binding
[13] = read-out: Ki α4β2 [3H]-NIC Binding
[14] = SH-EP1 cells, Table 1, read-out: Ki α6β3β4α5 [3H]-EPI Binding

T1 sequence (Q15825 26-494): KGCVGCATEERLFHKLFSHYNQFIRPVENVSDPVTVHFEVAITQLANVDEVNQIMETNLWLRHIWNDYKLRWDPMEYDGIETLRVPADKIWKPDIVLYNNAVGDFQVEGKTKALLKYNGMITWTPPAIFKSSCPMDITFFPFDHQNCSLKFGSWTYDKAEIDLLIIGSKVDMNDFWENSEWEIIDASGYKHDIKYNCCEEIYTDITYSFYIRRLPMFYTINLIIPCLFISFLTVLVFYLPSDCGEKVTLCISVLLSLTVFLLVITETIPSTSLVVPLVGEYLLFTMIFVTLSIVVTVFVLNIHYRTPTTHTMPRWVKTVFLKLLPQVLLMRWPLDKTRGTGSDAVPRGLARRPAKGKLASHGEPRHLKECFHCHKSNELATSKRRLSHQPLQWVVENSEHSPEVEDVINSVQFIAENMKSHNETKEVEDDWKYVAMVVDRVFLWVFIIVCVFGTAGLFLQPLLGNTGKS
T1 sequence (Q05901 25-458 partner limits assumed): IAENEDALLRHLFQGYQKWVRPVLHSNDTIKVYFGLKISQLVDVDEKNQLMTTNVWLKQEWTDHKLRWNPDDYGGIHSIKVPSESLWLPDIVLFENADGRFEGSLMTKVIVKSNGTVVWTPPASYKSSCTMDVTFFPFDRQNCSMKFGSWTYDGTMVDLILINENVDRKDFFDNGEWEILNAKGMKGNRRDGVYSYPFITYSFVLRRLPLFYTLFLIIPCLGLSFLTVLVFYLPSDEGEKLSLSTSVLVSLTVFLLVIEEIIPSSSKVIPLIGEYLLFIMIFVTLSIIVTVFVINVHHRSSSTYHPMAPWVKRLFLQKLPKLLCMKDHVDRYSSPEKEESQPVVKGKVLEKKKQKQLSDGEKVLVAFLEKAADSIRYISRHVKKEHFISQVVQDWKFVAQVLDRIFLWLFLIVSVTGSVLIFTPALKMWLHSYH
T1 sequence (P30926 22-498): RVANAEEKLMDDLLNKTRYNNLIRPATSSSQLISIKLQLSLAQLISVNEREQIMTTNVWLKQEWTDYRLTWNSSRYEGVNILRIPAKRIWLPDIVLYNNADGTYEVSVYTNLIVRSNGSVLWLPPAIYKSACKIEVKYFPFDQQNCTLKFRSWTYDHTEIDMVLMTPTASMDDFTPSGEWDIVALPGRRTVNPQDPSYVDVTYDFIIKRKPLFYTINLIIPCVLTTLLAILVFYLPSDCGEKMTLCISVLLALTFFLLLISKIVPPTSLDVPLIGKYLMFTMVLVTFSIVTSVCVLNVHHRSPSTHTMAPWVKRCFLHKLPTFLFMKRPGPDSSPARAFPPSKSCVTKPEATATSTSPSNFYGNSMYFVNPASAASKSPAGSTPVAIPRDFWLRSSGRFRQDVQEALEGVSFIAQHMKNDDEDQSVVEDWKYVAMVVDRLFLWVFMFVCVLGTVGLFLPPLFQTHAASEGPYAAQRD
T1 sequence (P30532 23-468 partner): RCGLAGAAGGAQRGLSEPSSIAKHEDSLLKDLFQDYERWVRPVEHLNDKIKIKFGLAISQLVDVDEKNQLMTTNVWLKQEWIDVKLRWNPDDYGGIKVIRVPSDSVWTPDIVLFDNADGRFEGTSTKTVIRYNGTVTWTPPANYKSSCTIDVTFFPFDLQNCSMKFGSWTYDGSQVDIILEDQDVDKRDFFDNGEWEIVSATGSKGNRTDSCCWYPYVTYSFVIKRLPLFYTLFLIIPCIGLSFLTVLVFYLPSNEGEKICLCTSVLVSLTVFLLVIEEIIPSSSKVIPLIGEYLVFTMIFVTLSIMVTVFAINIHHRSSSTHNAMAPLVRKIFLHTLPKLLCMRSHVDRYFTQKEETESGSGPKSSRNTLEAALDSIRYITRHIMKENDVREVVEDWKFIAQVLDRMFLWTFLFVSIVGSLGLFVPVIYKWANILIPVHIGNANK
T3 sequence (Q05941 23-502): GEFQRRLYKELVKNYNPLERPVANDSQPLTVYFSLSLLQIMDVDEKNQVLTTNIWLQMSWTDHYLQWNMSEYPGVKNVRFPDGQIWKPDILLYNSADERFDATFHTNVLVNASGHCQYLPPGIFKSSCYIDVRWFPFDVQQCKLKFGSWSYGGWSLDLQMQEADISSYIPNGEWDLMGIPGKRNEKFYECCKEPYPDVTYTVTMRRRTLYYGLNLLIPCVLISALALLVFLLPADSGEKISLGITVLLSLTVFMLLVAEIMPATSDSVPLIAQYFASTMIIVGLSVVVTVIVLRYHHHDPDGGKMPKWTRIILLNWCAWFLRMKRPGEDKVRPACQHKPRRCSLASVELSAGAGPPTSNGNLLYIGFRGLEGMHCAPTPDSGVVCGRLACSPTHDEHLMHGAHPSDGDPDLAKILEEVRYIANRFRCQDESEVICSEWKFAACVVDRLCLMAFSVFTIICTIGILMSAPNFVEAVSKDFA
T2 sequence (P12390 25-500): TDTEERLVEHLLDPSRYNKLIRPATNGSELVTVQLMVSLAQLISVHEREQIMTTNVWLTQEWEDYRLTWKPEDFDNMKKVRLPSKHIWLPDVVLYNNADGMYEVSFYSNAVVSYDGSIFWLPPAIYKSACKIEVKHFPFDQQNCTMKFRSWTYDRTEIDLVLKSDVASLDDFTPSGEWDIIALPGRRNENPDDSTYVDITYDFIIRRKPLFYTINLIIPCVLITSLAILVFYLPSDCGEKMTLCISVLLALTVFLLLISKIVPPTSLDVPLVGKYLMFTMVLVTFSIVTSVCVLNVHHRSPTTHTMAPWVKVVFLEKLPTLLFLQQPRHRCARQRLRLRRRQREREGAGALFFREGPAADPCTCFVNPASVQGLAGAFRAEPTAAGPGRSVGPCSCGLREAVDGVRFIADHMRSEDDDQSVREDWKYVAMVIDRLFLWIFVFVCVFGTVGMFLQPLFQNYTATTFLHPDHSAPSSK
T2 sequence (P09483 31-630): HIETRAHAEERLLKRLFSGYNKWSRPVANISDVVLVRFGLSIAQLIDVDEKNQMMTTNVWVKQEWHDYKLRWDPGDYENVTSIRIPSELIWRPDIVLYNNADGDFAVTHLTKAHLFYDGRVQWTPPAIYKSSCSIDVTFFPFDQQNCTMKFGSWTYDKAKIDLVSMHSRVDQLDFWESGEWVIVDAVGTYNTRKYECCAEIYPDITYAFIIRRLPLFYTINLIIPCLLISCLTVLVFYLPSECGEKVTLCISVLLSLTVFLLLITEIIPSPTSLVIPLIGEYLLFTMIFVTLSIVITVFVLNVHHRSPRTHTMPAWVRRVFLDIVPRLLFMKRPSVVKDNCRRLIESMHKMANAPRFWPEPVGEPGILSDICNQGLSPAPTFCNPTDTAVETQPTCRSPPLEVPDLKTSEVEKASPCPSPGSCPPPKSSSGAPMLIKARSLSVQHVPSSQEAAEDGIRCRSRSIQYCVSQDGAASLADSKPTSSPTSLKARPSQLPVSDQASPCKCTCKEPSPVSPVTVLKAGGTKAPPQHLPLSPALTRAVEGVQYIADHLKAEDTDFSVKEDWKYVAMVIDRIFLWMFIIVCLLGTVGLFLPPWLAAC
Sequence of α6α4β2β3 nAChR (Homo sapiens, UniProt P17787+P43681+Q15825, P452S) (P43681 27-627 P452S): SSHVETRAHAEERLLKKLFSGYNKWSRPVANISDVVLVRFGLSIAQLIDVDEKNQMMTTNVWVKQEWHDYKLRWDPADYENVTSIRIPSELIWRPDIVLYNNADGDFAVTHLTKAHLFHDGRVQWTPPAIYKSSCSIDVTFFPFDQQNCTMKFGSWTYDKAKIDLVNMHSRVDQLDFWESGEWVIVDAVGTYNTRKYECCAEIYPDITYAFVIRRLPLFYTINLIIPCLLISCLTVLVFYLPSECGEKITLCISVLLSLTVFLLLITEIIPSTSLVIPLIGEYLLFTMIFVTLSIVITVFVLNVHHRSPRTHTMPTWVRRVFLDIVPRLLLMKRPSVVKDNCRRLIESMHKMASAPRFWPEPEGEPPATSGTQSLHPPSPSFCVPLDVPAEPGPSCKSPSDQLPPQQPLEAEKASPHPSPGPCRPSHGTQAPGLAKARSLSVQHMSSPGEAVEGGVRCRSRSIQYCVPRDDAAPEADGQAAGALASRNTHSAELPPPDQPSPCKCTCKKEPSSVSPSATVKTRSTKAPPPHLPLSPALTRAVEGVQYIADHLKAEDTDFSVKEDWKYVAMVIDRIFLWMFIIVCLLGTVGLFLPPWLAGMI
Sequence of α6α4β2β3 nAChR (Homo sapiens, UniProt P17787+P43681+Q15825, P452S) (Q15825 26-494): as the sequence (Q15825 26-494) above
Sequence of α6α4β2β3 nAChR (Homo sapiens, UniProt P17787+P43681+Q15825, P452S) (P17787 26-502): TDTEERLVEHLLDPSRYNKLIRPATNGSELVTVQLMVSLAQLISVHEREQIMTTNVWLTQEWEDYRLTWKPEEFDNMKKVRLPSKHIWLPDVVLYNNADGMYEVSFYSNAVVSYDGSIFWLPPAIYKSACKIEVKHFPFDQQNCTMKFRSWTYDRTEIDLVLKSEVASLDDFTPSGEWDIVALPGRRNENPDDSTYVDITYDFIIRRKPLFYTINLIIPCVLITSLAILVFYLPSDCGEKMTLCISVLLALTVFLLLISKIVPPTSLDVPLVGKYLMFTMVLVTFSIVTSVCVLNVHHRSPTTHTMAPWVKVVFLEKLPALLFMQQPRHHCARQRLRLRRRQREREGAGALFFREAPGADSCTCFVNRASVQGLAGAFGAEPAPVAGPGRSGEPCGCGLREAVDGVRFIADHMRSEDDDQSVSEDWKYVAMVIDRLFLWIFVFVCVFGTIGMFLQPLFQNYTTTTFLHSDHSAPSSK
Sequence of α6α4β2β3 nAChR (Homo sapiens, UniProt P17787+P43681+Q15825, P452S) (Q05901 22-458, further chain): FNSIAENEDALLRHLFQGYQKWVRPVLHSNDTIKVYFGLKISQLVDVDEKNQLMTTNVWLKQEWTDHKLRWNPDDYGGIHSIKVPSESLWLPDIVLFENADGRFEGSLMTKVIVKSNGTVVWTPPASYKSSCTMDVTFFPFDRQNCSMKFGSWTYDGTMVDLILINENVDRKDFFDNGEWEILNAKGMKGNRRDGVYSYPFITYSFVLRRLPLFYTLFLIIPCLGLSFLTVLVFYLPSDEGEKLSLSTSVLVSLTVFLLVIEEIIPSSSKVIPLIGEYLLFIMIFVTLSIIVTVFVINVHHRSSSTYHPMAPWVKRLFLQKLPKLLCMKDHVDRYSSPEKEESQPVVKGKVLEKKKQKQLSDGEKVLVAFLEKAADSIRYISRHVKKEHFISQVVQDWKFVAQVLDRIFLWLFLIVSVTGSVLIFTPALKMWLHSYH

c1cncc(C2CC3CCN2CC3)c1 (racemic) [TC-2429, (+/−)-2-(−3-pyridinyl)-1-azabicyclo[2.2.2]octane]
Ki [1, 10]: 2 nM | DA release [2]: robust DA release

CN1CCCC1c1cccnc1 (single isomer, unassigned; (-)) [(-)-NIC, nicotine]
Ki [1, 11]: 150 to 165 nM and 110 to 160 nM | Ki ([1]; Ki α6β3β4α5 [3H]-EPI Binding): 160 nM

O=c1cccc2n1C[C@@H]1CNC[C@H]2C1 [(-)-CYT, cytisine]
Agonist efficacy/potency at α6α4β2β3 nAChR relative to α4β2-nAChR [3]: higher efficacy and agonist potency; also recorded: much greater efficacy | Ki [1, 12]: 150 nM | Ki [4, 13]: 1 nM | Ki [5]: 1160 nM

CN1[C@@H](CC(=O)c2ccccc2)CCC[C@H]1C[C@H](O)c1ccccc1 [(-)-LOB, lobeline]
Ki [1, 14]: 7 nM | Ki [1, 10]: 7 to 9 nM and 6 nM

c1cncc(OC[C@@H]2CCN2)c1 [A-85380, 3-[2(S)-azetidinylmethoxy]pyridine]
Ki [1, 11]: 7 to 9 nM and 6 nM | Ki [1, 14]: 9 nM | Ki [4]: 3 nM | Ki ([5]; Rat brain, Table 1): 1200 nM

Cc1cc([C@@H]2CCCN2C)on1 [ABT-418, (S)-3-methyl-5-(1-methyl-2-pyrrolidinyl)isoxazole]
Ki [1, 11]: 900 to 3500 nM and 500 to 2000 nM | Ki [1, 14]: 850 nM | Ki ([4]; Rat brain, Table 1, read-out: Ki α4β2 [3H]-NIC Binding): 39 nM

C[N+](C)(C)CCOC(N)=O [CAR, carbachol]
Ki [1, 14]: 3500 nM | Ki [1, 10]: 900 to 3500 nM and 500 to 2000 nM | 86Rb+ efflux response (agonist) [6]: activate ^86Rb^+ efflux responses

CO[C@H]1CC=C2CCN3CCC4=C(CC(=O)OC4)[C@]23C1 [DHβE, dihydro-β-erythoidine]
Ki [1, 12]: > 10000 nM | Ki [4, 13]: 26.4 nM | Ki [5]: 5000 nM

Clc1ccc(C2CC3CCC2N3)cn1 (stereo not drawn) [EPI, epibatidine]
Ki ([1]; Ki α6β3β4α5 [3H]-EPI Binding): 0.07 nM

COc1ccc(/C=C2\CCCN=C2c2cccnc2)c(OC)c1 [GTS-21, (2.4)-dimethoxybenzylidene anabaseine]
Ki [7]: 2000 nM | Ki [1, 11]: 900 to 3500 nM and 500 to 2000 nM | Ki [1, 14]: 1400 nM | Ki [8]: 20 nM

CNC(=O)OCC[N+](C)(C)C [MCC, methylcarbamylcholine]
Ki [1, 14]: 970 nM

CCN1C[C@]2(COC(=O)c3ccccc3N3C(=O)C[C@H](C)C3=O)CC[C@H](OC)[C@@]34[C@@H]5C[C@H]6[C@H](OC)[C@@H]5[C@](O)(C[C@@H]6OC)[C@@](O)([C@@H](OC)[C@H]23)[C@@H]14 [MLA, methyllycaconitine]
Ki [1, 14]: 160 nM | Ki [1, 10]: 150 to 165 nM and 110 to 160 nM

CCN1C[C@]2(COC(=O)c3ccccc3N3C(=O)C[C@H](C)C3=O)CC[C@H](OC)[C@]34C5C[C@@H]6[C@@H](OC)C[C@@](O)(C5[C@H]6OC(C)=O)[C@](O)(C13)[C@@H](OC)C24 (stereo partly drawn) [NUD, nudikauline]
Ki [1, 14]: 370 nM

C#Cc1cncc([C@@H]2CCCN2C)c1 [SIB-1508Y, altinicline]
Ki [1, 11]: 900 to 3500 nM and 500 to 2000 nM | Ki [1, 14]: 950 nM | Ki [4]: 200 nM

CNC1(C)C2CCC(C2)C1(C)C (stereo not drawn) [mecamylamine]
Ki ([1]; read-out: Ki in competition with [3H]-EPI (rank order of potency)): > 10000 nM

CC(=O)O[C@H]1C[C@@H]2CC[C@@H]3[C@H](CC[C@@]4(C)[C@H]3C[C@H]([N+]3(C)CCCCC3)[C@@H]4OC(C)=O)[C@@]2(C)C[C@@H]1[N+]1(C)CCCCC1 [pancuronium]
Sensitivity of α6α4β2β3-nAChR to functional blockade relative to α4β2-nAChR [9]: lower sensitivity

α-bungarotoxin [α-Btx]
Ki [1, 12]: > 10000 nM | Ki [4, 13]: > 10000 nM
